Assay results taken from PMC7645381, “Development and application of a high-throughput screening assay for identification of small molecule inhibitors of the P. falciparum reticulocyte binding-like homologue 5 protein” (International Journal for Parasitology: Drugs and Drug …, 2020).
Values joined by “and” are separate entries in the source; they are usually repeats but may differ in a detail not shown here. Equal values may be shown once. Read-outs that look alike come from different tables or passages of the source.

Columns and labels:
[1] = target: P. falciparum Rh5 (Rh5 – basigin interaction) (Plasmodium falciparum, UniProt Q8IFM5); experiment: biochemical; type: binding; conditions: for Rh5 inhibitory activity in the AlphaScreen assay: highest concentration tested 50 μM
[2] = Basigin_IC50_Counter_Alpha counterscreen; conditions: 11 pt titration; flag (POORFIT given as ~)
Text: Supplement mmc3.xlsx, sheet "Report" | column: Basigin_IC50_Counter_Alpha IC50

[3] = AlphaScreen TruHits counterscreen assay; conditions: for IC50: 11 pt titration, flag (POORFIT given as ~), read-out: Basigin_IC50_Counter_TruHits IC50; for % Inhibition Counter: TruHits counterscreen, single point, 10 μM in duplicate
Procedure: The counterscreen assay was conducted using AlphaScreen TruHits kit (PerkinElmer). Biotinylated acceptor beads and Streptavidin donor beads were both diluted in assay buffer (final concentration of 10 μg/mL). Using the Combi-multidrop, 10 μL of each bead solution (20 μg/mL prepared in assay buffer) was added to every well of the assay plate under subdued lighting. Compound addition and assay readout was performed as described above.

[4] = system: P. falciparum 3D7 parasites; experiment: P. falciparum parasite viability assay (LDH); type: cell-based
Procedure: A modified version of the lactate dehydrogenase (LDH) assay described by [Gamo et al. […] Compounds were pre-dispensed in 384-well plates, RPMI/Albumax growth media was added, and P. falciparum inoculated. Plates were incubated for 72 h and then frozen at −80 °C overnight. LDH activity was quantified with the modified cofactor 3-acetylpyridine adenine dinucleotide (APAD) (Sigma Aldrich) by measuring absorbance of the tetrazolium indicator nitro blue tetrazolium (NBT) (Sigma Aldrich) at 650 nm. Parasite conditions: […] Growth inhibition assay: […] Intermediate compound dilution plates were prepared by dispensing 5 μL from each well of the compound master plate into 11.5 μL of RPMI/Albumax growth media. Duplicate assay plates (384-well) were then prepared by dispensing 0.5 μL of compound from the intermediate dilution plates into 9.5 μL of RPMI/Albumax growth media. […] The final DMSO concentration was 0.1% (to limit toxicity to parasites). […] Evaluation of parasite growth measuring lactate dehydrogenase (LDH) activity: After 72 h of incubation, plates were frozen at −80 °C overnight and then thawed at room temperature for at least 4 h. […] Plates were shaken to ensure mixing and absorbance at 650 nm was monitored using a PerkinElmer Envision plate reader after 30 min of incubation at room temperature. Data were normalised to percent growth inhibition using positive and negative controls and analyzed using TIBCO Spotfire software.

HepG2 cells = experiment: HepG2 growth inhibition assay; type: cell-based; conditions: Homo sapiens, 10-point dilution series, 48 h, Cell Titre-Glo
Procedure: HepG2 cells were cultured in Dulbeccos modified eagle's medium (DMEM) supplemented with 10% fetal calf serum (FCS), in a humidified incubator at 37 °C and 5% CO2. Ten-point compound titration assays were performed by treating cells (1 × 10^3) for 48 h in 384 well tissue culture treated plates (Greiner). Cytotoxicity was determined using Cell Titer Glo (Promega) and calculated as a percentage using DMSO as a positive growth control and 10 μM Bortezomib as a negative growth control. EC50 values were calculated using a 4-parameter log dose, non-linear regression analysis, with sigmoidal dose response (variable slope) curve fit using Graph Pad Prism (version 6.05). 0 and 100 constraint parameters were used for curve fitting. […]

D10-PfPHG parasites = experiment: Schizont rupture assay; type: cell-based, P. falciparum
Procedure: D10-PfPHG parasites ([Wilson et al., 2010]) were cultured in human O^+ erythrocytes in RPMI-HEPES culture medium (pH 7.4, 50 μg/mL hypoxanthine, 25 mM NaHCO3, 20 μg/mL gentamicin, 0.5% Albumax II (Thermo Fisher Scientific) according to established protocols ([Trager and Jensen, 1976]) and maintained in an atmosphere of 1% O2, 4% CO2 and 95% N2. For assessment of merozoite invasion after schizont rupture, parasites were tightly synchronised to a 4 h window of invasion using heparin ([Boyle et al., 2010]; [Wilson et al., 2015]) and then grown for a further 42 h. Drug treatments were setup at 2–3% parasitaemia and 1% haematocrit in 50 μL volumes with a 1 in 10 dilution of drug added when parasites were 44–48 h post invasion. After 6 h of drug treatment and immediately after invasion was expected to finish, the assays were treated with 5 μg/mL ethidium bromide (EtBr, Bio-Rad) for 5 min prior to flow cytometry assessment of parasitaemia using a Becton Dickinson Accuri. Gating of newly invaded rings, free merozoites and unruptured late stages was achieved as per published methods ([Wilson et al., 2013]).
To determine if the modest activity of pranlukast and analogues in the parasite viability assay was a consequence of invasion inhibition, rather than inhibition at another stage of blood stage parasite development, we performed an assay that measures the effect of compound treatment on P. falciparum D10 asexual stage transition between late schizont and ring stages ([Wilson et al., 2013]). In this assay, highly synchronised mature schizont-stage parasites were incubated with pranlukast and selected analogues at 50 and 100 μM and the transition to newly invaded ring stage parasites was quantified by flow cytometry. In parallel, the rate of schizont rupture and merozoite release was quantified to assess whether any reduction in newly invaded ring stages was due to a block affecting merozoite release or development. […] Neither DMSO (at the maximal concentration used for the drug treatments of 0.1%) or a non-invasion inhibitory mAb control caused a reduction in merozoite invasion. […] […].

P. falciparum D10 = P. falciparum D10 growth inhibition by flow cytometry; type: cell-based; conditions: for EC50: Plasmodium falciparum, D10, growth inhibition by flow cytometry, 12-point dilution series, 72 h
Procedure: Pranlukast and selected analogues were then evaluated in a P. falciparum parasite viability assay. For this assay, we followed the procedure described by [Gamo et al. (2010)], that used lactate dehydrogenase (LDH) as a readout for parasite viability. In this assay, 3D7 parasites were incubated over 72 h in the presence of increasing concentrations of compounds. […]. For a comparison, selected compounds were incubated in the presence of P. falciparum D10 parasites for 72 h (Table 1, Fig. S14) and growth inhibition measured by flow cytometry. […].

[5] = 11 pt titration of the 45 hits, flag (POORFIT given as ~), two lines per compound, read-out: Basigin_IC50_Assay_Alpha IC50
[6] = Plasmodium falciparum, 3D7, 72 h, LDH activity, 10-point dilution series, 72 h, read-out: P. falciparum 3D7 EC50
[7] = LDH activity, 10-point dilution series, 72 h, read-out: P. falciparum 3D7 EC50
[8] = 50 and 100 μM, 6 h, flow cytometry

P. falciparum Rh5 (Rh5 – basigin interaction), sequence (Q8IFM5 24-526): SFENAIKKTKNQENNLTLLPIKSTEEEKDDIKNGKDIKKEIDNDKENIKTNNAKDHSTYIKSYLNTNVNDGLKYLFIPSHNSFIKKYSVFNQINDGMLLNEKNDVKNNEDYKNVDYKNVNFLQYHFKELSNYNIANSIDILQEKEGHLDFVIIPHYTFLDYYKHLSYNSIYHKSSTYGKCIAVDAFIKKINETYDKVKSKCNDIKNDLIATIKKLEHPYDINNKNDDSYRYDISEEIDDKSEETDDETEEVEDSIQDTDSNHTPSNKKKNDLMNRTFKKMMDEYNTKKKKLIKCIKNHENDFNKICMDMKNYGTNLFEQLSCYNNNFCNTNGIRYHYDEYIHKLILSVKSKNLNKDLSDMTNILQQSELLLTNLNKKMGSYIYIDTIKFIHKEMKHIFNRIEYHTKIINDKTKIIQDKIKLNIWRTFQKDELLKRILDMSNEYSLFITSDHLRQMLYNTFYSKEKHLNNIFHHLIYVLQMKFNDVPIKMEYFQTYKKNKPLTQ

Compound	EC50 [4, 6] [µM]	IC50 [1] [µM]	EC50 (HepG2 cells) [µM]	free merozoite numbers (D10-PfPHG parasites; [8])	merozoite invasion (newly invaded early ring stages) (D10-PfPHG parasites; [8])	EC50 (P. falciparum D10) [µM]	other results
COCCCOc1ccnc(C[S+]([O-])c2nc3ccccc3[nH]2)c1C (stereo not shown) [WEHI-1216602]	–	–	–	–	–	–	IC50 [1, 5]: 1.08 µM and 1.23 µM; IC50 [2]: > 25 µM; IC50 [3]: > 25 µM
C[C@H]1CCC/C=C/[C@@H]2C[C@H](O)C[C@H]2[C@H](O)/C=C/C(=O)O1 [Brefeldin A, reference compound]	3.5	–	–	–	–	–	–
O=C([O-])c1ccccc1-c1c2cc(Br)c(=O)cc-2oc2[c]([Hg+])c([O-])c(Br)cc12.[Na+].[Na+].[OH-] [WEHI-1216497, Merbromin, reference compound]	–	–	–	–	–	–	% Inhibition Confirmation ([1]; confirmation, single point, 10 μM in duplicate): 100.385%; % Inhibition Pilot ([1]; primary screen, 20 μM): 100.87%; % Inhibition Counter [3]: 29.2235%
CN1CCc2cc(O)cc3c2[C@H]1Cc1ccc(O)c(O)c1-3 [WEHI-1215043]	–	–	–	–	–	–	IC50 [1, 5]: 4.02 µM and 4.98 µM; IC50 [2]: > 25 µM; IC50 [3]: > 25 µM
COc1ccc(C(=O)Nc2cccc3c(=O)cc(C(=O)O)oc23)cc1 [Compound 21, 8-(4-Methoxybenzamido)-4-oxo-4H-chromene-2-carboxylic acid]	> 50	> 50	> 50	–	–	–	Rh5 inhibitory activity in the AlphaScreen assay [1]: No activity
COc1cc(C(=O)NS(=O)(=O)c2ccccc2C)ccc1Cc1cn(C)c2ccc(NC(=O)OC3CCCC3)cc12 [zafirlukast, reference compound]	6	17	> 50	–	–	–	EC50 [4, 7]: 5.9 µM; Rh5 inhibitory activity in the AlphaScreen assay [1]: possess inhibitory activity
CCOC(=O)c1cc(=O)c2cccc(NC(=O)c3ccc(OCCCc4ccccc4)cc3)c2o1 [Compound 13, Ethyl 4-oxo-8-(4-(3-phenylpropoxy)benzamido)-4H-chromene-2-carboxylate]	> 50	> 50	> 50	no reduction in free merozoite numbers	minimal inhibition of merozoite invasion	> 50	–
CCCc1c(OCC(O)COc2ccc3c(=O)cc(C(=O)O)oc3c2CCC)ccc(C(C)=O)c1O (stereo not shown) [FPL 55712, reference compound]	–	–	> 50	–	–	–	EC50 ([4]; Plasmodium falciparum, 3D7, 72 h, read-out: P. falciparum 3D7 EC50): > 50 µM
COc1ccc(C(=O)Nc2cccc3c(=O)cc(-c4nn[nH]n4)oc23)cc1 [Compound 24, 4-Methoxy-N-(4-oxo-2-(2H-tetrazol-5-yl)-4H-chromen-8-yl)benzamide]	25	> 50	> 50	–	–	–	–
O=C(Nc1cccc2c(=O)cc(C(=O)O)oc12)c1ccc(OCCCCc2ccccc2)cc1 [Compound 18, 4-Oxo-8-(4-(4-phenylbutoxy)benzamido)-4H-chromene-2-carboxylic acid]	> 50	21	> 50	similarly reduced numbers of free merozoites	reduction in numbers of merozoites that had invaded and formed early ring stages	42	–
O=C(Nc1cccc2c(=O)cc(-c3nn[nH]n3)oc12)c1ccc(OCCCc2ccccc2)cc1 [Compound 25, N-(4-Oxo-2-(2H-tetrazol-5-yl)-4H-chromen-8-yl)-4-(3-phenylpropoxy)benzamide]	7	20	> 50	–	–	–	EC50 [4, 7]: 7.3 µM
Oc1c(Cl)cc(Cl)c(Cl)c1Cc1c(O)c(Cl)cc(Cl)c1Cl [WEHI-0104268, Hexachlorophene, reference compound]	–	–	–	–	–	–	% Inhibition Counter [3]: 28.8475%
O=C(Nc1cccc2c(=O)cc(C(=O)O)oc12)c1ccc(OCCCc2ccccc2)cc1 [Compound 17, 4-Oxo-8-(4-(3-phenylpropoxy)benzamido)-4H-chromene-2-carboxylic acid]	15	24	> 50	no reduction in free merozoite numbers	minimal inhibition of merozoite invasion	19	–
O=C(Nc1cccc2c(=O)cc(C(=O)O)oc12)c1ccc(OCCc2ccccc2)cc1 [Compound 16, 4-Oxo-8-(4-phenethoxybenzamido)-4H-chromene-2-carboxylic acid]	40	40	> 50	–	substantial reduction in the numbers of merozoites that had invaded and formed early ring stages	6.7	EC50 [4, 7]: 37 µM; free merozoite numbers (D10-PfPHG parasites; lowest concentration tested (50 μM)): minimal loss in free merozoite numbers; fold more active against the D10 strain than the 3D7 strain (P. falciparum D10; EC50 D10 vs 3D7): 5 fold
O.c1cnc2c(c1)ccc1cccnc12 [WEHI-1215482, 1,10-Phenanthroline monohydrate, reference compound]	–	–	–	–	–	–	inhibition at 10 µM ([1]; read-out: % Inhibition Confirmation): 99.6%; % Inhibition Counter [3]: 2.663%
cDPCP [WEHI-1215640, reference compound]	–	–	–	–	–	–	% Inhibition Counter [3]: 2.1075%
O=C(O)c1ccccc1Nc1cccc(OCc2ccc3ccccc3n2)c1 [SR2540, reference compound]	–	> 50	> 50	similarly reduced numbers of free merozoites	reduction in numbers of merozoites that had invaded and formed early ring stages	6.1	increase in unruptured schizonts (D10-PfPHG parasites; at the concentrations tested (50 and 100 μM)): > 40%
CCN(CC)CCCC(C)Nc1ccnc2cc(Cl)ccc12 (stereo not shown) [Chloroquine, reference compound]	–	–	–	–	–	–	EC50 ([4]; Plasmodium falciparum, 3D7, 72 h, read-out: P. falciparum 3D7 EC50, control, LDH activity, 72 h): 0.018 µM
CCC(CC)(CC(=O)Nc1cccc(/C=C/c2nc(C3CCC3)cs2)c1)C(=O)O [cinalukast, reference compound]	–	> 50	> 50	similarly reduced numbers of free merozoites	reduction in numbers of merozoites that had invaded and formed early ring stages	32	Rh5 inhibitory activity in the AlphaScreen assay [1]: did not show Rh5 inhibitory activity
heparin	–	–	–	not free merozoites	reduction in the number of early rings stage parasites	–	–
